This note sets out measurements from patent publication US20250320562A1, “ALTERNATIVELY SPLICED ISOFORM IN CANCER AND METHODS OF USE THEREOF” (THE CHILDREN'S HOSPITAL OF PHILADELPHIA, priority 2022, published 2025).

The structures appear in SMILES notation.

One experiment concerns MHHCALL4 cell line. In words: 6-MP dose-response in CRISPR/Cas9 NT5C2-KO and NT5ex4a (E4a) KO models, MHHCALL4. The class given is cell-based. An excerpt:
(§1) FIG. 4: NT5C2 KO in MHHCALL4. (Top left panel) CRISPR/CAS9 strategy for the generation of total NT5C2 or NT5ex4a isoform specific KOs, representing the exons that will be targeted for each model. (Top right panel) Western-Blot of the NT5C2 levels on the parental, NT5C2-KO and NT5ex4a (E4a) KO models in the 697 and MHHCALL4 cell lines.
(§2) Consistent with this biochemical finding, in reconstituted NT5C2low B-ALL cells NT5ex4a conferred the same level of resistance to 6-MP as the variant with the R238W hotspot mutation (2-log difference in IC50). […] Therefore, inclusion of NT5C2 exon 4a phenocopies relapse-specific mutations and could serve as both a valuable predictive biomarker in B-ALL and potentially chronic myelogenous (CML) and acute myeloid leukemia (AML).

For experiment [1], the system named is REH cells over-expressing the WT, E4a or R238W NT5C2 isoforms. Description: 6-MP chemoresistance in vivo in xenografted B-ALL cells expressing NT5C2 isoforms. Also on record: species or system mice. As to conditions: xenografted B-ALL cells expressing NT5ex4a.
Text: FIG. 5: NT5C2 E4a alternative isoform in 6-MP resistance. (Left panel) Bioluminescent mouse image of mice engrafted with REH cells over-expressing the WT, E4a or R238W NT5C2 isoforms at different time points. (Right panel) Flux quantification of mice engrafted with REH cells over-expressing the WT, E4a or R238W NT5C2 isoforms at different time points.
as §2

In experiment [2] the test system is reconstituted NT5C2low B-ALL cells. In words: Resistance to 6-MP in reconstituted NT5C2low B-ALL cells expressing NT5C2 isoforms. The class given is cell-based.
Text: FIGS. 8A-8C: Possible effects of phosphorylation of the NT5C2 activity. (FIG. 8A) Predicted serine and threonine phosphorylation sites in the NT5C2 amino acid sequence. […] (SEQ ID NOS: 5-24) (FIG. 8B) Top ten kinases predicted to phosphorylate the NT5C2 exon NT5ex4a-encoded peptide. (FIG. 8C) Increased pro-survival activity of NT5C2 E4a isoform where the Ser-121 has been replaced by a phosphomimetic aspartic acid (S121D). Compare curves with rectangles and triangles.
as §2
To determine the mechanism underlying the pro-survival activity of the NT5C2 E4a isoform, it was considered that it might be phosphorylated. Indeed, the application of predictive algorithms identified serine at position 121 as the residue in exon NT5ex4a most likely to be phosphorylated (FIG. 8A). Based on the amino acid context, it most strongly resembles consensus sites for kinases of the AGC, CAMK, and PIKK families. The latter includes such important cancer-related kinases as ATR and ATM (FIG. 8B). […]

The test system of the next experiment is 697 cell line. Description: 6-MP dose-response in CRISPR/Cas9 NT5C2-KO model, 697. The class given is cell-based.
Text: as §1

For experiment [3], the system named is B-ALL cells expressing NT5ex4a. Description: In vitro sensitivity to mizoribine of cells expressing the non-canonical NT5C2 isoform. The class given is cell-based. The conditions noted are these: expression of the non-canonical isoform NT5ex4a.
Text: FIG. 6: Mizoribine specifically blocks the […], adding extra pressure in NT5C2 hyperactive cells (Dieck et al., Blood, 2019). (Left panel) Mechanism of action of 6-MP and 6-TG purine analogs. (Right panel) Effects of NT5C2 activating-mutations on purine bases synthesis and degradation.
as §2

Regarding `S=c1nc[nH]c2nc[nH]c12` [6-MP, mercaptopurine], the “cell survival in the presence of 6-MP” value with MHHCALL4 cell line (CRISPR/Cas9 engineered NT5ex4a KO cells) was “reduced cell survival”. Moreover, the “sensitivity to 6-MP treatment (dose-response plots)” value was “increased sensitivity” in the experiment on MHHCALL4 cell line (E4a-KO, E4a-high expression MHHCALL4); “increased sensitivity” in the experiment on MHHCALL4 cell line (NT5C2-KO, MHHCALL4); “increased sensitivity” with 697 cell line. Moreover, the chemoresistance in vivo entry in experiment [1] is recorded as “chemoresistance in vivo was further confirmed”. Also, in experiment [2] (E4a isoform with Ser-121 replaced by aspartic acid (S121D) versus parental E4a or the alanine derivative), the “survival in the presence of 6-MP” value was “stronger survival advantages”. For the same compound, in experiment [2] (NT5ex4a, same level of resistance as the R238W hotspot mutation variant, compared to the canonical isoform), the “difference in IC50 (resistance to 6-MP)” value is 2 log.
Turning to `NC(=O)c1ncn([C@@H]2O[C@H](CO)[C@@H](O)[C@H]2O)c1O` [mizoribine, 4-carbamoyl-1-β-d-ribofuranosyl imirdozolium], the sensitivity to mizoribine result in experiment [3] is recorded as “collateral sensitivity”.
